Data as given in US20080227757A1, “Formulation for dermal application” (priority 2005, published 2008).

Key:
[1] = physchem
Procedure: The lipophily value P gives low lipophility at a low value of the logarithm of P (log P), and a high value of the log P gives high lipophily. The distribution coefficient P is measured at pH 7.4 and 21° C. in octanol water.

[2] = Permeation of active ingredient from formulations through isolated human Stratum corneum (modified Franz cell); conditions: active ingredient in the inventive formulation
Procedure: To determine the permeation of an active ingredient from the inventive formulation compared to conventional formulations containing active ingredients pharmaceutical preparations containing 5-aminolevulinic acid were tested in vitro on isolated human skin.
Human Stratum corneum, originating from biopsies of plastic operations, was used as isolated human skin. Following the biopsy subcutaneous fat was removed and the skin was frozen in liquid nitrogen, then stored at −25° C. After gradual thawing the Stratum corneum was isolated by trypsination on filter paper, and impregnated with an aqueous 2% trypsin solution. After incubation at 37° C. for 24 h the Stratum corneum could be lifted off, incubated in a 0.01% aqueous solution trypsin inhibitor and then washed several times in water. This isolated horny layer was dried and stored at room temperature in the desiccator. For permeation examinations a modified Franz cell was used, the compartments of which were separated off through the Stratum corneum. Pretreatment of the Stratum corneum is done by total hydration in water and placement on a polycarbonate filter (Isopor membrane filter, type TMTP, 5.0 μm, Millipore) to boost mechanical stability. The donor compartment was filled with inventive or respectively comparative formulation containing 5-aminolevulinic acid, whereby 5-aminolevulinic acid at 10% by weight was contained in the formulations.
The preparation containing 5-aminolevulinic acid, procurable according to Example 2, was tested for permeation as inventive preparation, as compared to a formulation with conventional cream base according to the German Pharmacopoeia (70 parts water, 30 parts hydrophilic salve from 30 parts emulsifying cetylstearyl alcohol (type A), 35 parts viscid paraffin and 35 parts soft Vaseline), and in comparison to a formulation in dolgit microgel (5% by weight ibuprofen, in 2-propanol, dimethyl isosorbide, poloxamer, medium-chain triglycerides, lavender oil, neroli oil and water).
After application the quantity of active ingredient permeated through the skin was measured.

SMILES	permeation of the active ingredient from the inventive formulation through the human Stratum corneum [2]	log P ([1]; octanol water, pH 7.4, 21° C.)	logP ([1]; octanol/water, pH 7.4)	other results
CCCCCCOC(=O)CCC(=O)CN [5-ALA-hexylester]		1.839		
CCCCCCCCOC(=O)CCC(=O)CN [5-ALA-octylester]		2.6199		
CCOC(=O)CCC(=O)CN [5-ALA-ethylester]		0.8411		
NCC(=O)CCC(=O)OC1CCCCC1 [5-ALA-cyclohexylester]		1.494		
COC(=O)CCC(=O)CN [5-ALA-methylester, methyl ester of 5-aminolevulinic acid]				log P ([1]; pH 7.4): −0.9423
CCCCOC(=O)CCC(=O)CN [5-ALA-butylester, 5-aminolevulinic acid butyl ester]			1.42	

More lines, main results first:

permeation of the active ingredient from the inventive formulation through the human Stratum corneum [2]	log P ([1]; octanol water, pH 7.4, 21° C.)	logP ([1]; octanol/water, pH 7.4)	SMILES	other results
improvement in permeation			Clc1ccccc1C(c1ccccc1)(c1ccccc1)n1ccnc1 [clotrimazole]	logP ([1]; pH 7.4): 4.1
improvement in permeation			CC(=O)OCC(=O)[C@@]1(O)CC[C@H]2[C@@H]3CCC4=CC(=O)CC[C@]4(C)[C@H]3[C@@H](O)C[C@@]21C [hydrocortisone acetate]	logP ([1]; pH 7.4): 2.18
improvement in permeation		3.3	CN(C/C=C/C#CC(C)(C)C)Cc1cccc2ccccc12 [terbinafine]	
improvement in permeation		-1.15	CC(=O)Oc1ccccc1C(=O)O [acetylsalicylic acid]	
		-1.52	NCC(=O)CCC(=O)O [Example 5-ALA, 5-aminolevulinic acid]	
